This is an account of results in patent US8106055B2, “Substituted amide compounds” (Gruenenthal GmbH, priority 2007, dated 2012).

In experiment [1] the target is T1, human μ opiate receptor (Homo sapiens, UniProt P35372).
T1 construct: purchased PerkinElmer Life Sciences, Zaventem, Belgium RB-HOM; host or cells: CHO-K1 cells (membrane preparation)
The experiment is described as follows: Affinity for the human μ opiate receptor ([3H]-naloxone displacement, CHO-K1 receptor membrane preparation, SPA). It counts as binding. To be noted: test concentration of 1 μM; read-out: μ (binding on the μ opioid receptor, % inhibition). The essentials: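 SPA, CHO-K1 hμ membranes; 1 nmol/l [3H]-naloxone; Tris-HCl 50 mmol/l + 0.06% BSA; 90 min RT; NSB with 100 μmol/l naloxone; β-counting. Readout: % inhibition of specific binding at 1 μM test compound.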

Experiment [2] addresses T2, serotonin (5-HT) reuptake (Rattus norvegicus, UniProt P31652).
T2 construct: synaptosomes are freshly isolated from areas of the rat brain; from tissue; host or cells: rat brain synaptosomes (P2 fraction)
Description: Inhibition of serotonin (5HT) reuptake in synaptosomes from rat brain. To be noted: test concentration of 10 μM; read-out: 5-HT (inhibition of reuptake of serotonin, % inhibition). It counts as biochemical. A digest of the protocol:
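Compounds screened at 10 μM and reported as percent inhibition of serotonin uptake. Uptake measured in a freshly prepared P2 synaptosomal fraction from rat brain.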

T2 sequence (P31652 whole entry): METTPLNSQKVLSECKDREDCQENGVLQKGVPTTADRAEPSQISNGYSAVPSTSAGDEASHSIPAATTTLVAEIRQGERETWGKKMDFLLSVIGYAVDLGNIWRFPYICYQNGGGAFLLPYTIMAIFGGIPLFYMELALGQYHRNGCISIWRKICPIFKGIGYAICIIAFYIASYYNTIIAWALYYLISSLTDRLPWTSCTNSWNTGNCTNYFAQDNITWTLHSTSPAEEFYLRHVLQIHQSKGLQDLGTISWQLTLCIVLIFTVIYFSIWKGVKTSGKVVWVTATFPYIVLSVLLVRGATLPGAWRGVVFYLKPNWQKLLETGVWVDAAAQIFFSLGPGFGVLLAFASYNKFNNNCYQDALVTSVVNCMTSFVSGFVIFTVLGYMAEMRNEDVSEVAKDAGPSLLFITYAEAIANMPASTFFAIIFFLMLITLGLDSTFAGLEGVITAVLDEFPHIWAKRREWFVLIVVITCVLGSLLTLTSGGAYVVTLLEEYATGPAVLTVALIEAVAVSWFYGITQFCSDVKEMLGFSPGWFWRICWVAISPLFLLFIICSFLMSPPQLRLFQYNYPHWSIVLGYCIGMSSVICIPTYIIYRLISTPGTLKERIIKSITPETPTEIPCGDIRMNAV
T1 sequence (P35372 whole entry): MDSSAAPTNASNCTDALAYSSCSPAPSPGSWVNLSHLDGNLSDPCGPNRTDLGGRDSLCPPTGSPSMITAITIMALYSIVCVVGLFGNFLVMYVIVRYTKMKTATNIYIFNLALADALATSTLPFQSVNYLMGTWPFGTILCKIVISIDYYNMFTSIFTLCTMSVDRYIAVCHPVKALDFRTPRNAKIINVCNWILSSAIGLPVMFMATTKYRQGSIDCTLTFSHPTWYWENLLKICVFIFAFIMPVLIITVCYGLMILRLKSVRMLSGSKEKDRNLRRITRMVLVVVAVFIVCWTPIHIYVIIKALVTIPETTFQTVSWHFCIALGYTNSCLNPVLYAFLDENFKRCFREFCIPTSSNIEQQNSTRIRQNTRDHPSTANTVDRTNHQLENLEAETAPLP

For the compound `COc1ccc(S(=O)(=O)N2CCCC2COCC(=O)NCCC2CCC(C(c3cccs3)N(C)C)CC2)cc1` (stereo not shown) [Example 77, N-(2-(4-((dimethylamino)(thiophen-2-yl)methyl)cyclohexyl)ethyl)-2-((1-(4-methoxyphenylsulfonyl)pyrrolidin-2-yl)methoxy)acetamide], the inhibition at 1 µM in experiment [1] was determined as 96%. Besides, the inhibition at 10 µM in experiment [2] was found to be 98%.

As for `CN(C)C(c1ccccc1)C1CCC(CNC(=O)COC2CCCCC2N(C)S(=O)(=O)c2ccc(Cl)c(Cl)c2)CC1` (stereo not shown) [Example 78, 2-(2-(3,4-dichloro-N-methylphenylsulfonamido)cyclohexyloxy)-N-((4-((dimethylamino)(phenyl)methyl)cyclohexyl)methyl)acetamide], in experiment [1], the inhibition at 1 µM worked out at 95%. In addition, the inhibition at 10 µM in experiment [2] was 86%.

For `COc1cc(C)c(S(=O)(=O)N(C)CCOCC(=O)NC2CCC(C(c3ccccc3)N(C)C)CC2)c(C)c1C` (stereo not shown) [Example 80, N-(4-((dimethylamino) (phenyl)methyl)cyclohexyl)-2-(2-(4-methoxy-N,2,3,6-tetramethylphenylsulfonamido)ethoxy)acetamide], the inhibition at 1 µM in experiment [1] is 93%. Besides, the inhibition at 10 µM in experiment [2] amounted to 84%.

On to `CN(C)C(c1ccccc1)C1CCC(CNC(=O)COC2CCN(S(=O)(=O)c3ccc(Cl)cc3)C2)CC1` (stereo not shown) [Example 81, 2-(1-(4-chlorophenylsulfonyl)pyrrolidin-3-yloxy)-N-((4-((dimethylamino)(phenyl)methyl)cyclohexyl)methyl)acetamide], for which the inhibition at 1 µM in experiment [1] was 91%. Moreover, the inhibition at 10 µM in experiment [2] stood at 91%.

For the compound `Cc1ccc(S(=O)(=O)N(C)CCOCC(=O)NCCC2CCC(C(c3cccs3)N(C)C)CC2)cc1` (stereo not shown) [Example 82, N-(2-(4-((dimethylamino)(thiophen-2-yl)methyl)cyclohexyl)ethyl)-2-(2-(N,4-dimethylphenylsulfonamido)ethoxy)acetamide], in experiment [1], the inhibition at 1 µM turned out to be 95%. Moreover, the inhibition at 10 µM in experiment [2] stood at 85%.

`CN(C)C(c1cccs1)C1CCC(NC(=O)COCCN(C)S(=O)(=O)c2ccc(Cl)cc2)CC1` (stereo not shown) [Example 83, 2-(2-(4-chloro-N-methylphenylsulfonamido)ethoxy)-N-(4-((dimethylamino) (thiophen-2-yl)methyl)cyclohexyl)acetamide]: in experiment [1], the inhibition at 1 µM worked out at 94%. Besides, in experiment [2], the inhibition at 10 µM is 89%.

With `COc1cc(C)c(S(=O)(=O)N(C)CCOCC(=O)NCCC2CCC(C(c3cccs3)N(C)C)CC2)c(C)c1` (stereo not shown) [Example 84, N-(2-(4-((dimethylamino)(thiophen-2-yl)methyl)cyclohexyl)ethyl)-2-(2-(4-methoxy-N,2,6-trimethylphenylsulfonamido)ethoxy)acetamide], the inhibition at 1 µM in experiment [1] worked out at 95%. The inhibition at 10 µM in experiment [2] was found to be 92%.

For `CN(C)C(c1cccs1)C1CCC(CCNC(=O)COCCN(C)S(=O)(=O)c2ccc(F)cc2)CC1` (stereo not shown) [Example 85, N-(2-(4-((dimethylamino)(thiophen-2-yl)methyl)cyclohexyl)ethyl)-2-(2-(4-fluoro-N-methylphenylsulfonamido)ethoxy)acetamide], the inhibition at 1 µM in experiment [1] came to 92%. The inhibition at 10 µM in experiment [2] was found to be 98%.

For the compound `COc1cc(C)c(S(=O)(=O)N2CCC(OCC(=O)NCC3CCC(C(c4cccs4)N(C)C)CC3)C2)c(C)c1` (stereo not shown) [Example 86, N-((4-((dimethylamino)(thiophen-2-yl)methyl)cyclohexyl)methyl)-2-(1-(4-methoxy-2,6-dimethylphenylsulfonyl)pyrrolidin-3-yloxy)acetamide], the inhibition at 1 µM in experiment [1] was 95%. For the same compound, the inhibition at 10 µM in experiment [2] was determined as 96%.

Take `CN(C)C(c1cccc(F)c1)C1CCC(CNC(=O)COCC2CCCCN2S(=O)(=O)c2ccc(Cl)c(Cl)c2)CC1` (stereo not shown) [Example 87, 2-((1-(3,4-dichlorophenylsulfonyl)piperidin-2-yl)methoxy)-N-((4-((dimethylamino)(3-fluorophenyl)methyl)cyclohexyl)methyl)acetamide]: in experiment [1], the inhibition at 1 µM amounted to 93%. For the same compound, in experiment [2], the inhibition at 10 µM is 94%.

For `COc1ccc(S(=O)(=O)N2CCCCC2COCC(=O)NCC2CCC(C(c3ccccc3)N(C)C)CC2)cc1` (stereo not shown) [Example 88, N-((4-((dimethylamino)(phenyl)methyl)cyclohexyl)methyl)-2-((1-(4-methoxyphenylsulfonyl)piperidin-2-yl)methoxy)acetamide], the inhibition at 1 µM in experiment [1] was 94%. In experiment [2], the inhibition at 10 µM amounted to 95%.

As for `COc1ccc(S(=O)(=O)N2CCCCC2CCOCC(=O)NCC2CCC(C(c3ccccc3)N(C)C)CC2)cc1` (stereo not shown) [Example 89, N-((4-((dimethylamino)(phenyl)methyl)cyclohexyl)methyl)-2-(2-(1-(4-methoxyphenylsulfonyl)piperidin-2-yl)ethoxy)acetamide], the inhibition at 1 µM in experiment [1] amounted to 93%. Further, the inhibition at 10 µM in experiment [2] is 92%.

As to `COc1ccc(S(=O)(=O)N2CCCCC2CCOCC(=O)NCC2CCC(C(c3cccs3)N(C)C)CC2)cc1` (stereo not shown) [Example 90, N-((4-((dimethylamino)(thiophen-2-yl)methyl)cyclohexyl)methyl)-2-(2-(1-(4-methoxyphenylsulfonyl)piperidin-2-yl)ethoxy)acetamide], the inhibition at 1 µM in experiment [1] was 95%. Moreover, the inhibition at 10 µM in experiment [2] was determined as 94%.

Take `CN(C)C(c1ccccc1)C1CCC(CNC(=O)COCCN(C)S(=O)(=O)c2cccc(C(F)(F)F)c2)CC1` (stereo not shown) [Example 91, N-((4-((dimethylamino)(phenyl)methyl)cyclohexyl)methyl)-2-(2-(N-methyl-3-(trifluoromethyl)phenylsulfonamido)ethoxy)acetamide]: the inhibition at 1 µM in experiment [1] came out at 91%. In experiment [2], the inhibition at 10 µM was determined as 93%.

Take `CN(C)C(c1cccs1)C1CCC(CNC(=O)COCCN(C)S(=O)(=O)c2cccc(C(F)(F)F)c2)CC1` (stereo not shown) [Example 92, N-((4-((dimethylamino)(thiophen-2-yl)methyl)cyclohexyl)methyl)-2-(2-(N-methyl-3-(trifluoromethyl)phenylsulfonamido)ethoxy)acetamide]: the inhibition at 1 µM in experiment [1] is 94%. Further, the inhibition at 10 µM in experiment [2] stood at 86%.

For the compound `CN(C)C(c1cccs1)C1CCC(CNC(=O)COCCN(C)S(=O)(=O)c2ccc(OC(F)(F)F)cc2)CC1` (stereo not shown) [Example 93, N-((4-((dimethylamino)(thiophen-2-yl)methyl)cyclohexyl)methyl)-2-(2-(N-methyl-4-(trifluoromethoxy)phenylsulfonamido)ethoxy)acetamide], the inhibition at 1 µM in experiment [1] stood at 95%. Moreover, the inhibition at 10 µM in experiment [2] is 93%.

In the case of `COc1ccc(S(=O)(=O)N2CCC(OCC(=O)NCCC3CCC(C(c4cccs4)N(C)C)CC3)C2)cc1OC` (stereo not shown) [Example 94, 2-(1-(3,4-dimethoxyphenylsulfonyl)pyrrolidin-3-yloxy)-N-(2-(4-((dimethylamino)(thiophen-2-yl)methyl)cyclohexyl)ethyl)acetamide], in experiment [1], the inhibition at 1 µM is 93%. In experiment [2], the inhibition at 10 µM is 88%.

One may read the inhibition as the change of the read-out against control, counted positive when it falls.
